What was measured:
Assay in all cases: relative viability (nuclei count vs DMSO), 5 days (fraction); higher = more cells survive
KIN001-266 + Navitoclax = compound: CCN1CCC(CC1)N2C=C(N=N2)CNC3=CC4=C(C(=CN=C4C(=C3)Cl)C#N)NC5=CC(=C(C=C5)F)Cl [KIN001-266] + CC1(C)CCC(c2ccc(Cl)cc2)=C(CN2CCN(c3ccc(C(=O)NS(=O)(=O)c4ccc(N[C@H](CCN5CCOCC5)CSc5ccccc5)c(S(=O)(=O)C(F)(F)F)c4)cc3)CC2)C1 [Navitoclax] (partner 0.5 µM)
Procedure, shortened: (§1)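 Relative viability is defined as nuclei in treated wells over nuclei in vehicle wells. Duplicate plates were run and medians reported. Lung cancer cell lines in 1536-well plates were dosed by pin tool one day after seeding, with one drug or with a fixed anchor-drug dose plus five library-drug doses (not always all listed) in √10 steps, and nuclei were counted after 5 days.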

KIN001-266 + Luminespib = compound: CCN1CCC(CC1)N2C=C(N=N2)CNC3=CC4=C(C(=CN=C4C(=C3)Cl)C#N)NC5=CC(=C(C=C5)F)Cl [KIN001-266] + CCNC(=O)c1noc(-c2cc(C(C)C)c(O)cc2O)c1-c1ccc(CN2CCOCC2)cc1 [Luminespib] (partner 0.01 µM)
Procedure, shortened: as §1

KIN001-266 + Foretinib = compound: CCN1CCC(CC1)N2C=C(N=N2)CNC3=CC4=C(C(=CN=C4C(=C3)Cl)C#N)NC5=CC(=C(C=C5)F)Cl [KIN001-266] + COc1cc2c(Oc3ccc(NC(=O)C4(C(=O)Nc5ccc(F)cc5)CC4)cc3F)ccnc2cc1OCCCN1CCOCC1 [Foretinib] (partner 0.25 µM)
Procedure, shortened: as §1

KIN001-266 + Linsitinib = compound: CCN1CCC(CC1)N2C=C(N=N2)CNC3=CC4=C(C(=CN=C4C(=C3)Cl)C#N)NC5=CC(=C(C=C5)F)Cl [KIN001-266] + C[C@]1(O)C[C@@H](c2nc(-c3ccc4ccc(-c5ccccc5)nc4c3)c3c(N)nccn32)C1 [Linsitinib] (partner 1 µM)
Procedure, shortened: as §1

| Cell Line | relative viability (KIN001-266 + Navitoclax; first compound 0.08 µM) | relative viability (KIN001-266 + Navitoclax; first compound 0.253 µM) | relative viability (KIN001-266 + Navitoclax; first compound 0.8 µM) | relative viability (KIN001-266 + Navitoclax; first compound 2.53 µM) | relative viability (KIN001-266 + Navitoclax; first compound 8 µM) | relative viability (KIN001-266 + Luminespib; first compound 0.08 µM) | relative viability (KIN001-266 + Luminespib; first compound 0.253 µM) | relative viability (KIN001-266 + Luminespib; first compound 0.8 µM) | relative viability (KIN001-266 + Luminespib; first compound 2.53 µM) | relative viability (KIN001-266 + Luminespib; first compound 8 µM) | relative viability (KIN001-266 + Foretinib; first compound 0.08 µM) | relative viability (KIN001-266 + Foretinib; first compound 0.253 µM) | relative viability (KIN001-266 + Foretinib; first compound 0.8 µM) | relative viability (KIN001-266 + Foretinib; first compound 2.53 µM) | relative viability (KIN001-266 + Foretinib; first compound 8 µM) | relative viability (KIN001-266 + Linsitinib; first compound 0.08 µM) | relative viability (KIN001-266 + Linsitinib; first compound 0.253 µM) | relative viability (KIN001-266 + Linsitinib; first compound 0.8 µM) | relative viability (KIN001-266 + Linsitinib; first compound 2.53 µM) | relative viability (KIN001-266 + Linsitinib; first compound 8 µM) |
| --- | --- | --- | --- | --- | --- | --- | --- | --- | --- | --- | --- | --- | --- | --- | --- | --- | --- | --- | --- | --- |
| NCI-H1944 | 1.03 | 1.05 | 0.991 | 1.04 | 1.04 | 0.73 | 0.771 | 0.708 | 0.744 | 0.68 | 0.898 | 0.806 | 0.886 | 0.911 | 0.882 | 1.3 | 1.23 | 1.14 | 1.29 | 1.22 |
| NCI-H1975 | 1.16 | 1.04 | 1.13 | 1.11 | 1.09 | 0.26 | 0.187 | 0.276 | 0.221 | 0.215 | 0.972 | 0.96 | 0.966 | 1.05 | 1.04 | 0.981 | 1.04 | 1.08 | 1.02 | 0.958 |
| NCI-H1993 | 1.15 | 0.96 | 0.855 | 0.731 | 0.681 | 0.872 | 1.02 | 0.705 | 0.736 | 0.533 | 0.86 | 0.777 | 0.758 | 0.749 | 0.675 | 0.714 | 0.657 | 0.828 | 0.687 | 0.797 |
| NCI-H2009 | 1.14 | 1.13 | 1.16 | 1.07 | 1.1 | 1.04 | 0.969 | 1.05 | 0.983 | 0.881 | 1.15 | 1.16 | 1.28 | 1.23 | 1.03 | 1.23 | 1.12 | 1.2 | 1.16 | 1.05 |
| NCI-H2023 | 0.956 | 1 | 1.08 | 0.93 | 1.05 | 0.738 | 0.698 | 0.764 | 0.696 | 0.865 | 0.837 | 0.959 | 1.02 | 0.919 | 0.556 | 0.696 | 0.706 | 0.696 | 0.617 | 0.481 |
| NCI-H2085 | 1.15 | 1.25 | 1.08 | 1.13 | 0.906 | 0.412 | 0.437 | 0.404 | 0.434 | 0.429 | 1.06 | 1.01 | 0.731 | 0.939 | 0.954 | 0.854 | 0.986 | 0.908 | 0.949 | 0.793 |
| NCI-H2087 | 1.17 | 0.93 | 0.916 | 0.97 | 0.56 | 0.199 | 0.156 | 0.173 | 0.165 | 0.184 | 1.22 | 1.17 | 1.09 | 1.15 | 0.962 | 0.924 | 0.95 | 0.963 | 0.791 | 0.599 |
| NCI-H2126 | 0.844 | 0.86 | 0.863 | 0.813 | 0.855 | 0.868 | 0.871 | 0.906 | 0.865 | 0.978 | 1.12 | 1.18 | 1.15 | 1.26 | 1.15 | 0.72 | 0.724 | 0.739 | 0.73 | 0.73 |
| NCI-H2228 | 0.738 | 0.937 | 1.4 | 0.851 | 0.514 | 0.136 | 0.13 | 0.145 | 0.172 | 0.112 | 0.76 | 0.733 | 0.82 | 0.89 | 0.602 | 0.94 | 0.813 | 0.483 | 0.518 | 0.454 |
| NCI-H2347 | 0.869 | 0.747 | 0.787 | 0.834 | 0.453 | 0.846 | 0.009 | 0.41 | 0.358 | 0.269 | 1.04 | 0.622 | 0.746 | 0.844 | 0.632 | 0.998 | 0.936 | 0.937 | 0.762 | 0.573 |
| NCI-H2405 | 1.02 | 1 | 0.901 | 0.881 | 0.4 | 0.743 | 0.712 | 0.628 | 0.701 | 0.516 | 1.06 | 1.02 | 1.02 | 1.05 | 0.713 | 0.888 | 0.887 | 0.942 | 0.928 | 0.584 |
| NCI-H3122 | 0.968 | 1.09 | 1.01 | 0.998 | 0.769 | 0.0939 | 0.0878 | 0.106 | 0.123 | 0.098 | 0.98 | 0.961 | 0.94 | 0.918 | 0.914 | 0.979 | 0.97 | 0.996 | 0.958 | 0.96 |
| PC-3 [JPC-3] | 0.813 | 0.869 | 0.759 | 0.738 | 0.803 | 0.719 | 0.673 | 0.613 | 0.744 | 0.669 | 1.02 | 1.04 | 0.983 | 0.972 | 0.889 | 0.99 | 0.934 | 0.941 | 0.958 | 0.896 |
| PC-14 | 0.973 | 1.03 | 1.07 | 0.959 | 0.599 | 0.167 | 0.117 | 0.171 | 0.225 | 0.152 | 0.907 | 1.04 | 0.743 | 0.979 | 0.503 | 0.953 | 1.06 | 1.01 | 0.97 | 0.442 |

— the supplement of paper PMC10307832
